Key:
[1] = target: T1, human recombinant HDAC6 (Homo sapiens, UniProt Q9UBN7); experiment: HDAC6 enzyme activity inhibition assay (in vitro, fluorimetric); format: biochemical; settings: for HDAC6 selectivity (fold): HDAC6 selectivity over HDAC1; for IC50: human recombinant HDAC6, fluorimetric kit, same protocol as HDAC1
T1 construct: purchased Calbiochem 382180
T1 sequence (Q9UBN7 1-1215): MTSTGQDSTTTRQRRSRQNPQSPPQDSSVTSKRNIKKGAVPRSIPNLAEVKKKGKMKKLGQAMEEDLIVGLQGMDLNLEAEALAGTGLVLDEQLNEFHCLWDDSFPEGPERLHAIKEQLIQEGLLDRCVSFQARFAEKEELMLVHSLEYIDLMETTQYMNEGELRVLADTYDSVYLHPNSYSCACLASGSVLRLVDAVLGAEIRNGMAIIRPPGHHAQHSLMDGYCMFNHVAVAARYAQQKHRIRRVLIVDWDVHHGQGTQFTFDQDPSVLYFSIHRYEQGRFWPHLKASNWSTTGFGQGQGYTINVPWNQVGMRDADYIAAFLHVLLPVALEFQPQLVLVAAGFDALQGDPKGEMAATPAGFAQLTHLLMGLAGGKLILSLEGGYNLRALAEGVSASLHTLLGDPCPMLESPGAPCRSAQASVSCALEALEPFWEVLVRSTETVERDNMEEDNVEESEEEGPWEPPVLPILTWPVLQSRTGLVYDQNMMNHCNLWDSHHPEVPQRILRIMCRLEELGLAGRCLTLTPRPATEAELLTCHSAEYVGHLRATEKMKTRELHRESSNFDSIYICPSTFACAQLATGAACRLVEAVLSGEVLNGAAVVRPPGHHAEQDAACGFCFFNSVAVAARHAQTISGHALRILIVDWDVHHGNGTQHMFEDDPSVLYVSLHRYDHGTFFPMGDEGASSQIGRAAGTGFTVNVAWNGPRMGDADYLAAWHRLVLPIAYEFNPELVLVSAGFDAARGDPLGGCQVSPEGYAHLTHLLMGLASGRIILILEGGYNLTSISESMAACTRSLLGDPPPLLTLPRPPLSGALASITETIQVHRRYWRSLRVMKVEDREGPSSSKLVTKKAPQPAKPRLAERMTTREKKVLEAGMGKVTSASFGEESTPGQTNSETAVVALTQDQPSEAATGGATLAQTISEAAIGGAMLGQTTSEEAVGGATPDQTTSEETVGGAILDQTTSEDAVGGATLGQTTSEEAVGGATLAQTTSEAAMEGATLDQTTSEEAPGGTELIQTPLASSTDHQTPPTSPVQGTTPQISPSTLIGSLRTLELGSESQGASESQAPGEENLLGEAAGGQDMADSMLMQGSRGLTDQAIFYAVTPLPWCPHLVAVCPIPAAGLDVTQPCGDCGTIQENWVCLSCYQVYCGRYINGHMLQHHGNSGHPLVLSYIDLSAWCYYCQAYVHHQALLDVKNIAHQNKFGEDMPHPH
Method: (§1) In order to examine the HDAC6 selectivity of the compounds of formula 1 of the present invention by HDAC1 and HDAC6 enzymatic activity inhibition assays, an experiment was performed using a conventional substance as a control.
(§2) HDAC enzyme activity was measured using a HDAC Fluorimetric Drug Discovery Kit (BML-AK511, 516, Enzo Life Science). For the HDAC1 enzyme activity test, human recombinant HDAC1 (BML-SE456) was used as an enzyme source, and Fluor de Lys®-“SIRT1 (BNL-KI177) was used as a substrate. A 5-fold dilution of the compound was seeded into a 96-well plate, and then 0.3 μg of the enzyme and 10 μM of the substrate were added to each well of the plate and allowed to react at 30° C. for 60 minutes. Then, Fluor de Lys® Developer II (BML-KI176) was added thereto and allowed to react for 30 minutes, after which the fluorescence value (Ex 360, Em 460) was measured using a multi-plate reader (Flexstation 3, Molecular Device). The HDAC6 enzyme was tested using human recombinant HDAC6 (382180) (Calbiochem) according to the same protocol as the HDAC1 enzyme activity test method. Based on the resulting values, each IC50 value was calculated using GraphPad Prism4.0 program.

[2] = target: T2, human recombinant HDAC1 (Homo sapiens, UniProt Q13547); experiment: HDAC1 enzyme activity inhibition assay (in vitro, fluorimetric); format: biochemical; settings: human recombinant HDAC1, fluorimetric kit, 30° C. 60 minutes
T2 construct: purchased Enzo Life Science BML-SE456
Method: as §1, §2

T2 sequence (Q13547 whole entry): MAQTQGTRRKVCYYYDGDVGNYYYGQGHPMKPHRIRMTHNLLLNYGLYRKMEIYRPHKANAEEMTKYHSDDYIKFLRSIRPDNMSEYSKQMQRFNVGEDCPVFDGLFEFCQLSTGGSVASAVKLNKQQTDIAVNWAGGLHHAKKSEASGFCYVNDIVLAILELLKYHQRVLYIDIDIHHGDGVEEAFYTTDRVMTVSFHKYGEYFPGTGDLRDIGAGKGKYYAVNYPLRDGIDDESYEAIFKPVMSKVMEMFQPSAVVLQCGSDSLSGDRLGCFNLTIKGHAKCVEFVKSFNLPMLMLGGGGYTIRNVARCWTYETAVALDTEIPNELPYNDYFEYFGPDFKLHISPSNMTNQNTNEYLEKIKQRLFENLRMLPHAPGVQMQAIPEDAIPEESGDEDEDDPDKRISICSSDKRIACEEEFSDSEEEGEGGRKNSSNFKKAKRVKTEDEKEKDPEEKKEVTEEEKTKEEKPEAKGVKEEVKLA

| Structure (SMILES) | HDAC6 selectivity (fold) [1] [fold] | IC50 [1] [nM] | IC50 [2] [nM] |
| --- | --- | --- | --- |
| C[C@@H]1CN(Cc2ccc(C(=O)NO)cc2)C[C@H](C)N1C(=O)C(C)(C)C [Compound 292, 4-(((3R,5S)-3,5-dimethyl-4-pivaloylpiperazin-1-yl)methyl)-N-hydroxybenzamide] | 76 | 74 | 5600 |
| COc1ccc(C(=O)N2[C@H](C)CN(Cc3ccc(C(=O)NO)cc3)C[C@@H]2C)cc1 [Compound 291, N-hydroxy-4-(((3R,5S)-4-(4-methoxybenzoyl)-3,5-dimethylpiperazin-1-yl)methyl)benzamide] | 24 | 55 | 1300 |
| C[C@@H]1CN(Cc2ccc(C(=O)NO)cc2)C[C@H](C)N1Cc1cc(C(F)(F)F)cc(C(F)(F)F)c1 [Compound 214, 4-(((3R,5S)-4-(3,5-bis(trifluoromethyl)benzyl)-3,5-dimethylpiperazin-1-yl)methyl)-N-hydroxybenzamide] | >61 | 165 | > 10000 |
| C[C@@H]1CN(Cc2c[nH]c3cc(C(=O)NO)ccc23)C[C@H](C)N1Cc1ccccc1 [Compound 520, 3-(((3R,5S)-4-benzyl-3,5-dimethylpiperazin-1-yl)methyl)-N-hydroxy-1H-indole-6-carboxamide] | >11 | 860 | > 10000 |
| CCN(CC)C[C@@H](C)NCc1cccc(CN2[C@H](C)CN(Cc3ccc(C(=O)NO)cc3)C[C@@H]2C)c1 [Compound 455, 4-(((3R,5S)-4-(3-(((1-(diethylamino)propan-2-yl)amino)methyl)benzyl)-3,5-dimethylpiperazin-1-yl)methyl)-N-hydroxybenzamide] | 93 | 103 | 9600 |
| C[C@@H]1CN(C(=O)Cc2cccc(-c3ccncc3)c2)C[C@H](C)N1Cc1ccc(C(=O)NO)cc1 [Compound 251, 4-(((2S,6R)-2,6-dimethyl-4-(2-(3-(pyridin-4-yl)phenyl)acetyl)piperazin-1-yl)methyl)-N-hydroxybenzamide] | 57 | 242 | 13700 |
| CCCC(=O)N1[C@H](C)CN(Cc2ccc(C(=O)NO)cc2)C[C@@H]1C [Compound 294, 4-(((3R,5S)-4-butyryl-3,5-dimethylpiperazin-1-yl)methyl)-N-hydroxybenzamide] | 37 | 220 | 8200 |
| C[C@@H]1CN(Cc2ccc(C(=O)NO)cc2)C[C@H](C)N1C(=O)c1ccccc1 [Compound 083, 4-(((3R,5S)-4-benzoyl-3,5-dimethylpiperazin-1-yl)methyl)-N-hydroxybenzamide] | 201 | 10 | 2000 |
| C[C@@H]1CN(Cc2ccccc2-c2ccoc2)C[C@H](C)N1Cc1ccc(C(=O)NO)cc1 [Compound 348, 4-(((2S,6R)-4-(2-(furan-3-yl)benzyl)-2,6-dimethylpiperazin-1-yl)methyl)-N-hydroxybenzamide] | 6 | 843 | 4700 |
| C[C@@H]1CN(Cc2ccc(C(=O)NO)cc2)C[C@H](C)N1C(=O)NCc1cccc(F)c1 [Compound 232, (2S,6R)-N-(3-fluorobenzyl)-4-(4-(hydroxycarbamoyl)benzyl)-2,6-dimethylpiperazine-1-carboxamide] | 28 | 286 | 7900 |
| C[C@@H]1CN(Cc2ccc(C(=O)NO)cc2)C[C@H](C)N1C(=O)c1ccccc1-c1ccoc1 [Compound 284, 4-(((3R,5S)-4-(2-(furan-3-yl)benzoyl)-3,5-dimethylpiperazin-1-yl)methyl)-N-hydroxybenzamide] | 84 | 68 | 5700 |
| C[C@@H]1CN(Cc2ccc(C(=O)NO)cc2)C[C@H](C)N1Cc1ccccc1C1=CCC(C)(C)CC1 [Compound 331, 4-(((3R,5S)-4-((4′,4′-dimethyl-2′,3′,4′,5′-tetrahydro-[1,1′-biphenyl]-2-yl)methyl)-3,5-dimethylpiperazin-1-yl)methyl)-N-hydroxybenzamide] | 13 | 731 |  |
| C[C@@H]1CN(Cc2ccc3oc(C(=O)NO)cc3c2)C[C@H](C)N1Cc1ccccc1 [Compound 571, 5-(((3R,5S)-4-benzyl-3,5-dimethylpiperazin-1-yl)methyl)-N-hydroxybenzofuran-2-carboxamide] | 48 | 210 |  |

More lines, in order of falling IC50 [1], values ahead:

| HDAC6 selectivity (fold) [1] [fold] | IC50 [1] [nM] | IC50 [2] [nM] | Structure (SMILES) |
| --- | --- | --- | --- |
| 2 | 763 | 1500 | C[C@@H]1CN(C(=O)NCc2cccc(F)c2)C[C@H](C)N1Cc1ccc(C(=O)NO)cc1 [Compound 231, (3R,5S)-N-(3-fluorobenzyl)-4-(4-(hydroxycarbamoyl)benzyl)-3,5-dimethylpiperazine-1-carboxamide] |
| >23 | 429 |  | C[C@@H]1CN(Cc2ccccc2)C[C@H](C)N1Cc1ccc(CC(=O)NO)cc1 [Compound 176, 2-(4-(((2S,6R)-4-benzyl-2,6-dimethylpiperazin-1-yl)methyl)phenyl)-N-hydroxyacetamide] |
| >40 | 249 |  | C[C@@H]1CN(Cc2ccc(C(=O)NO)cc2)C[C@H](C)N1CCc1ccccc1 [Compound 184, 4-(((3R,5S)-3,5-dimethyl-4-phenethylpiperazin-1-yl)methyl)-N-hydroxybenzamide] |
| 8 | 125 | 1100 | C[C@@H]1CN(Cc2ccc(/C=C/C(=O)NO)cc2)C[C@H](C)N1C(=O)Nc1cccc(-n2cccc2)c1 [Compound 321, (2S,6R)-N-(3-(1H-pyrrol-1-yl)phenyl)-4-(4-((E)-3-(hydroxyamino)-3-oxoprop-1-en-1-yl)benzyl)-2,6-dimethylpiperazine-1-carboxamide] |
| >103 | 97 | > 10000 | C[C@@H]1CN(Cc2ccccc2)C[C@H](C)N1Cc1ccc(C(=O)NO)c(F)c1 [Compound 174, 4-(((2S,6R)-4-benzyl-2,6-dimethylpiperazin-1-yl)methyl)-2-fluoro-N-hydroxybenzamide] |
|  | 44 |  | CC(C)CCN1CCN(Cc2cccc(CN3[C@H](C)CN(Cc4ccc(C(=O)NO)cc4)C[C@@H]3C)c2)CC1 [Compound 454, N-hydroxy-4-(((3R,5S)-4-(3-((4-isopentylpiperazin-1-yl)methyl)benzyl)-3,5-dimethylpiperazin-1-yl)methyl)benzamide] |
| >256 | 39 |  | C[C@@H]1CN(Cc2ccc(C(=O)NO)c(F)c2)C[C@H](C)N1Cc1ccccc1 [Compound 171, 4-(((3R,5S)-4-benzyl-3,5-dimethylpiperazin-1-yl)methyl)-2-fluoro-N-hydroxybenzamide] |
| 154 | 23 | 3500 | C[C@@H]1CN(Cc2ccc(C(=O)NO)cc2)C[C@H](C)N1C(=O)c1ccccc1-c1ccco1 [Compound 283, 4-(((3R,5S)-4-(2-(furan-2-yl)benzoyl)-3,5-dimethylpiperazin-1-yl)methyl)-N-hydroxybenzamide] |
| 5540 | 2 | 11100 | C[C@@H]1CN(Cc2ccc(C(=O)NO)cc2)C[C@H](C)N1Cc1cccc(Cl)c1 [Compound 128, 4-(((3R,5S)-4-(3-chlorobenzyl)-3,5-dimethylpiperazin-1-yl)methyl)-N-hydroxybenzamide] |
